# According to patent US20250295732A1, “COMPOSITIONS AND METHODS FOR ACTIVATING INNATE IMMUNITY” (Zoetis Services LLC, priority 2021, published 2025):
# Tested on: bovine monocyte-derived macrophages
# Experiment: Reactive nitrogen species (nitrite, Griess Reagent System)
# Type: cell-based
# Details: E. coli bioparticles 10 μg/mL 24 hours after CATH2 24 hr and 3-day rest; vs vehicle
# From the text: Peripheral blood mononuclear cells (PBMC) were isolated from bovine blood using ficoll gradients. Bovine monocytes were isolated from PBMC using magnetic assisted cell sorting to positively select for CD14+ cells using anti-human CD14 microbeads (Miltenyi Biotec). Purified bovine blood CD14+ monocytes were differentiated into macrophages using an M2-skewing differentiation factor (recombinant bovine M-CSF) over 7 days then exposed to CATH2 or a vehicle control in the presence of bovine casein to mimic aspects of the mammary gland for 24 hr. […] Following the rest period, a subset of vehicle- and CATH2-trained monocyte-derived macrophages were assessed for epigenetic and transcriptomic changes. The remaining cells were challenged with LPS or E. coli bioparticle labeled with pH-sensitive pHrodo green dye and key parameters for macrophage activation/immune response were assessed including glycolytic activity, surface marker expression, gene expression, cytokine production, phagocytosis, reactive nitrogen species production, and miRNA profiling. Nitrite, a primary breakdown product of nitric oxide, in cell culture supernatant were quantified using Griess Reagent System (Promega) according to manufacturer's instructions.
sequence,measurement,value
"RFGRFLRKIRRFRPKVTITIQGSARFG [CATH2, cathelicidin 2 peptide]",RNS (nitrite) response to E. coli bioparticle challenge,enhanced production of nitrogen oxide species/reactive nitrogen species (RNS) responses
